Data: ChEMBL document CHEMBL1139065, “Pyrazole-based factor Xa inhibitors containing N-arylpiperidinyl P4 residues” (Bioorg Med Chem Lett, 2007)

What was measured:
Coagulation factor X = Coagulation factor X (Homo sapiens, UniProt P00742); assay: Inhibition of human factor 10a
Plasma = assay: Anticoagulant potency in human plasma assessed as concentration required to double prothrombin time; type: functional
[1] = Metabolic stability in human liver microsomes assessed as intrinsic clearance; type: ADME, Microsome
[2] = Half life in dog at 0.2 mg/kg, po; settings: in vivo
[3] = Clearance in dog at 0.5 mg/kg, iv; settings: in vivo
[4] = Apparent permeability across Caco-2 cells; settings: human
in vivo = settings: dog, po, 0.2 mg/kg
Oryctolagus cuniculus = organism: Oryctolagus cuniculus; assay: Antithrombotic activity against rabbit arterio-venous shunt thrombosis model; type: functional, organism-based
[5] = Half life in human liver microsomes
Prothrombin = Prothrombin (Homo sapiens, UniProt P00734); assay: Inhibition of thrombin
Trypsin = Trypsin (Homo sapiens, UniProt P07477+P07478+P35030); assay: Inhibition of trypsin; type: protein assay

Coagulation factor X, sequence (P00742 41-179 limits assumed): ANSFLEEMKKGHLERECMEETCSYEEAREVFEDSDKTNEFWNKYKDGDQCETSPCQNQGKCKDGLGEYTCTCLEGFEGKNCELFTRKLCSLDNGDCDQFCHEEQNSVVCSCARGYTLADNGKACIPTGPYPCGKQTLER
Coagulation factor X, sequence (P00742 235-488 limits assumed): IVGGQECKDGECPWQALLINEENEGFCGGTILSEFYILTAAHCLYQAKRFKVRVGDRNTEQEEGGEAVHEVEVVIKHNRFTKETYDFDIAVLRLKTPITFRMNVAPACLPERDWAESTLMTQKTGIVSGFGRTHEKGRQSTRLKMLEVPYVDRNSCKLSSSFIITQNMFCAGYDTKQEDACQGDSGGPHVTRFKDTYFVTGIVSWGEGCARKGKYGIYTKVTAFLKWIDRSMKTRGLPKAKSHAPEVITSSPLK

Ki (Coagulation factor X)	Structure (SMILES)	PT (Plasma)	other results
23 nM	COc1ccc(-n2nc(C(N)=O)c3c2C(=O)N(C2CCN(c4ccccc4CN(C)C(C)=O)CC2)CC3)cc1	–	–
1 nM	CNCc1ccccc1N1CCC(N2CCc3c(C(N)=O)nn(-c4ccc(OC)cc4)c3C2=O)CC1	1.8 µM	–
81 nM	COc1ccc(-n2nc(C(N)=O)c3c2C(=O)N(C2CCN(c4ccccc4CN(C)S(C)(=O)=O)CC2)CC3)cc1	–	–
1.7 nM	CS(=O)(=O)c1ccccc1N1CCC(NC(=O)c2cc(C(F)(F)F)nn2-c2ccc3onc(N)c3c2)CC1	2.8 µM	microsomal CLint [1]: 51 µL/min/mg; half-life [2]: 1.3 h; clearance [3]: 18.3 mL/min/kg; Papp [4]: 1.7 ×10⁻⁶ cm/s; bioavailability (in vivo): 24%
0.87 nM	COc1ccc(-n2nc(C(N)=O)c3c2C(=O)N(C2CCN(c4ccccc4CN4CCC[C@@H]4O)CC2)CC3)cc1	2.5 µM	–
29 nM	COc1ccc(-n2nc(C(F)(F)F)cc2C(=O)NC2CCN(c3ccccc3CN3CCCC3)CC2)cc1	–	–
3 nM	CS(=O)(=O)c1ccccc1C1=CCC(NC(=O)c2cc(C(F)(F)F)nn2-c2cccc(CN)c2)CC1 (configuration not stated)	–	–
4.9 nM	CS(=O)(=O)c1ccccc1N1CCC(NC(=O)c2cc(C(F)(F)F)nn2-c2cccc(CN)c2)CC1	–	–
2.4 nM	CS(=O)(=O)c1ccccc1N1CCC(NC(=O)c2cc(C(F)(F)F)nn2-c2ccccc2CN)CC1	–	–
5.7 nM	CS(=O)(=O)c1ccccc1[C@H]1CC[C@H](NC(=O)c2cc(C(F)(F)F)nn2-c2cccc(CN)c2)CC1	–	–
2000 nM	CS(=O)(=O)c1ccccc1[C@H]1CC[C@@H](NC(=O)c2cc(C(F)(F)F)nn2-c2cccc(CN)c2)CC1	–	–
0.7 nM	CCN(C)Cc1ccccc1N1CCC(NC(=O)c2cc(C(F)(F)F)nn2-c2ccc3onc(N)c3c2)CC1	1.1 µM	microsomal CLint [1]: 29 µL/min/mg; half-life [2]: 2.5 h; clearance [3]: 71.7 mL/min/kg; Papp [4]: 2.7 ×10⁻⁶ cm/s; bioavailability (in vivo): 23%
3.9 nM	COc1ccc(-n2nc(C(N)=O)c3c2C(=O)N(C2CCN(c4ccccc4S(N)(=O)=O)CC2)CC3)cc1	–	–
0.41 nM	COc1ccc(-n2nc(C(N)=O)c3c2C(=O)N(C2CCN(c4ccccc4CN(C)C)CC2)CC3)cc1	1 µM	–
0.67 nM	CNCc1ccccc1N1CCC(NC(=O)c2cc(C(F)(F)F)nn2-c2ccc3onc(N)c3c2)CC1	1.2 µM	half-life [2]: 0.3 h; clearance [3]: 107 mL/min/kg; Papp [4]: 0.1 ×10⁻⁶ cm/s; bioavailability (in vivo): 1.7%
0.73 nM	Nc1noc2ccc(-n3nc(C(F)(F)F)cc3C(=O)NC3CCN(c4ccccc4CN4CCC[C@H]4O)CC3)cc12	0.83 µM	microsomal CLint [1]: 40 µL/min/mg; clearance [3]: 36.7 mL/min/kg; Papp [4]: 0.2 ×10⁻⁶ cm/s
0.26 nM	CCN(CC)Cc1ccccc1N1CCC(N2CCc3c(C(N)=O)nn(-c4ccc(OC)cc4)c3C2=O)CC1	1.5 µM	–
8.8 nM	COc1ccc(-n2nc(C(F)(F)F)cc2C(=O)NC2CCN(c3ccccc3CN(C)C)CC2)cc1	–	–
0.57 nM	COc1ccc(-n2nc(C(N)=O)c3c2C(=O)N(C2CCN(c4ccccc4CN4CCOCC4)CC2)CC3)cc1	3.5 µM	–
0.26 nM	COc1ccc(-n2nc(C(N)=O)c3c2C(=O)N(C2CCN(c4ccccc4CN4CCCC4)CC2)CC3)cc1	1.2 µM	–
14 nM	COc1ccc(-n2nc(C(F)(F)F)cc2C(=O)NC2CCN(c3ccccc3S(C)(=O)=O)CC2)cc1	–	–
92 nM	CS(=O)(=O)c1ccccc1N1CCC(NC(=O)c2cc(C(F)(F)F)nn2-c2ccc3onc(N)c3c2)CC1=O (configuration not stated)	–	–
0.61 nM	Nc1noc2ccc(-n3nc(C(F)(F)F)cc3C(=O)NC3CCN(c4ccccc4CN4CCCC4)CC3)cc12	0.84 µM	microsomal CLint [1]: 29 µL/min/mg; half-life [2]: 5 h; clearance [3]: 48.3 mL/min/kg; Papp [4]: 1.3 ×10⁻⁶ cm/s; bioavailability (in vivo): 26%; EC50 (Oryctolagus cuniculus): 740 nM
0.35 nM	COc1ccc(-n2nc(C(N)=O)c3c2C(=O)N(C2CCN(c4ccccc4S(C)(=O)=O)CC2)CC3)cc1	4.2 µM	half-life [5]: 1.95 h; Ki (Prothrombin): 1200 nM; half-life [2]: 0.8 h; clearance [3]: 3.83 mL/min/kg; Papp [4]: 1.5 ×10⁻⁶ cm/s; Ki (Trypsin): > 20000 nM; bioavailability (in vivo): 78%
6.6 nM	COc1ccc(-n2nc(C(F)(F)F)cc2C(=O)NC2CCN(c3ccccc3CN3CCOCC3)CC2)cc1	–	–
